Legend:
[1] = tested on: creatine transporter mRNA; test: In situ hybridization of creatine transporter mRNA in rat brain; type: in vivo; conditions: 48 hours after icv 0.4 um/kg; arcuate, dorsomedial, ventromedial, third ventricle, paraventricular thalamic, habenular areas; FIG. 6
Excerpt: At least 3 rats per group were used for each individual probe. Brains were dissected as described above and were cut vertically to remove the anterior portion at the optic chiasm and the posterior portion at the interpeduncular fossa so that the remaining blocks included the whole hypothalamus with a small additional margin of adjacent tissue. The blocks were immediately frozen on foil on dry ice, then stored at −80 degrees C. Blocks were sectioned in a cryostat (Micron HM500O) at −20 degrees C. and at a thickness of 13 microns. The slides were fixed in 4% paraformaldehyde for 5 minutes and acetylated in 1.3% triethanolamine and 0.5% acetic anhydride, pH 8.0 for 5 minutes. […] After air drying, the slides were ready to use.
For preparation of radiolabeled riboprobes, the DNA fragments containing the creatine transporter insert and a T7 or SP6 phage promoter sequence in each side were produced from cloning vectors (pCRII-TOPO, Invitrogene; PCR-TRAP, GenHunter) either by restriction endonuclease digestion or by PCR amplification. […] The cpm value was determined by counting in a liquid scintillation spectrometer. […]
For dipping and developing in situ slides, Kodak NTB-2 emulsion was diluted (1:1) using ddH2O and warmed to 40 degrees C. in a dark room. […] Slides were observed under dark-field microscopy (Olympus, Tokyo, Japan) and silver grains in regions of interest were assessed. […]

Fos (c-fos protein) = test: Fos immunohistochemistry of hypothalamic sections 4 hours after icv injection; type: in vivo, rat; conditions: 4 hours after icv injection, percent of area stained
Procedure: In experiments involving immunohistochemistry, animals were injected icv with beta-GPA or with vehicle. Four hours after injection, animals were anesthetized with halothane and perfused through the left ventricle of the heart, initially with oxygenated Krebs buffer and then with ˜350 ml of 4% paraformaldehyde in 0.1M NaCl, pH 7.4 phosphate buffered saline (PBS). Brains were extracted from the skull, hypothalamic blocks dissected (by coronal cuts anterior and posterior to hypothalamic landmarks) and post-fixed in 4% paraformaldehyde solution at 4 degrees C. overnight. The following day, the blocks were transferred to 30% sucrose and incubated overnight at 4 degrees C. After freezing in Optimum Cutting Temperature (OCT) compound (Sakura, Japan), blocks were sectioned coronally at 40 um on a cryostat and sections individually floated in multi-well dishes filled with PBS. Sections were treated for 30 minutes with 0.4% Triton detergent in potassium PBS to aid in antibody penetration. Primary antibodies were added, the plates shaken gently for 1 hour at room temperature, then incubated at 4 degrees C. for 72 hours. Sections were then brought to room temperature while shaking and the primary antibody solution was removed by washing 3 times with PBS buffer. After removal of the last wash, the secondary antibody solution was added and the plates incubated for 2 hours at room temperature in the dark. Removal of the second antibody was achieved by washing three times with PBS buffer prior to mounting on subbed slides. They were allowed to dry, rewetted with PBS buffer and cover-slipped with Citifluor (Ted Pella, Reading, Calif.).
Fos studies were performed using indirect fluorescence visualization. The method utilized rabbit c-Fos-AB5 (1:2,000; Oncogene Research Products, Cambridge, Mass.) with goat anti-rabbit Cy3 (1:500; Jackson Immuno Research Laboratories, West Grove, Pa.) as the secondary antibody. […] Staining observed in experimental tissue was compared to that observed from experiment-matched negative controls. […] Immunoreactive Fos (Fos IR) was quantified by capturing images at 10× using MagnaFire 2.0 Software. These images were imported into the Metamorph 6.1 Software package and density of staining measured using Hue Saturation Intensity. Regions outlining nuclei were hand drawn with an electric pen and the total areas and stained areas measured to yield percentages of total areas with specific Fos-IR. The values for left and right dorsomedial nuclei in each rat were averaged, and the averages used to calculate means. In the case of the III ventricle, the entire image was used for quantification prior to calculating the percentage of the area with Fos-IR.

[2] = tested on: hypothalamic creatine and phosphocreatine; test: Creatine assay (HPLC) of hypothalamic blocks; type: in vivo, rat; conditions: 48 hours after 0.4 um/kg
Procedure: Hypothalamic blocks were rapidly dissected from animals treated icv with vehicle or CoPP at the indicated doses and snap-frozen in liquid nitrogen. They were stored at -80 degrees C. until they were crushed into a powder under liquid nitrogen and homogenized in 0.5 M PCA. Samples were then centrifuged at 4 degrees C. for 10 minutes at 15,000×g and the resulting supernatant neutralized with 1 M KOH. HPLC analysis was performed essentially as described. Samples were injected onto a Partisil 10 SAX analytical column which was eluted […] starting with Buffer A (0.01M H2PO4) and changing to Buffer B ([…]). The column was run on a Waters HPLC equipped with a Waters 996 Photodiode Array Detector and a Waters 717+ Auto Sampler. Both creatine and phosphocreatine standards were run with each sample set. Results are expressed as nanomoles per mg wet weight.

`C=Cc1c(C)c2cc3[nH]c(cc4nc(cc5nc(cc1[nH]2)C(C)=C5CCC(=O)[O-])C(CCC(=O)[O-])=C4C)c(C)c3C=C.[Co+2]` [CoPP, Cobaltic protoporphyrin IX] was tested, and the “CrT mRNA in situ hybridization compared to control” value [1] was “increased”, the “Fos IR in the dorsomedial nucleus” value (Fos (c-fos protein)) was 6.86 ± 5.85% and the “Fos IR in the paraventricular nucleus” value (Fos (c-fos protein)) was 4.44 ± 2.22%. For the same compound, the “Fos IR in the midsection of the ventral III ventricle” value (Fos (c-fos protein); p<0.025) was 48.3 ± 11.18%, the “decrease in hypothalamic phosphocreatine concentrations” value ([2]; failed to meet statistical significance) was “about 40%” and the “decrease in hypothalamic creatine concentrations” value ([2]; versus vehicle-treated or fasted rats, p=0.008) was “about 20%”.
